Measurements as given in the supplement of paper PMC10307832.

Key:
Assay in all cases: relative viability (nuclei count vs DMSO), 5 days (fraction); higher = more cells survive
A-427 = tested on: A-427
Procedure, shortened: (§1)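 Five library-drug doses in √10 steps were combined with a fixed anchor-drug dose, or a single drug was given alone, by pin tool to lung cancer cell lines in 1536-well plates the day after seeding. Nuclei were stained and counted after 5 days. Relative viability is the nuclei count in treated wells over that in vehicle wells, taken as the median of duplicate plates.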

COR-L 105 = tested on: COR-L 105
Procedure, shortened: as §1

ChaGo-K-1 = tested on: ChaGo-K-1
Procedure, shortened: as §1

EKVX = tested on: EKVX
Procedure, shortened: as §1

EMC-BAC-2 = tested on: EMC-BAC-2
Procedure, shortened: as §1

H3255 = tested on: H3255
Procedure, shortened: as §1

HCC-366 = tested on: HCC-366
Procedure, shortened: as §1

LK-2 = tested on: LK-2
Procedure, shortened: as §1

LOU-NH91 = tested on: LOU-NH91
Procedure, shortened: as §1

NCI-H1563 = tested on: NCI-H1563
Procedure, shortened: as §1

NCI-H1666 = tested on: NCI-H1666
Procedure, shortened: as §1

NCI-H1734 = tested on: NCI-H1734
Procedure, shortened: as §1

NCI-H1755 = tested on: NCI-H1755
Procedure, shortened: as §1

NCI-H1975 = tested on: NCI-H1975
Procedure, shortened: as §1

NCI-H2170 = tested on: NCI-H2170
Procedure, shortened: as §1

NCI-H23 = tested on: NCI-H23
Procedure, shortened: as §1

NCI-H441 = tested on: NCI-H441
Procedure, shortened: as §1

NCI-H520 = tested on: NCI-H520
Procedure, shortened: as §1

NCI-H596 = tested on: NCI-H596
Procedure, shortened: as §1

PC-3 [JPC-3] = tested on: PC-3 [JPC-3]
Procedure, shortened: as §1

SK-MES-1 = tested on: SK-MES-1
Procedure, shortened: as §1

SW 900 = tested on: SW 900
Procedure, shortened: as §1

CCN(CC)CCCCNc1ncc2cc(-c3cc(OC)cc(OC)c3)c(NC(=O)NC(C)(C)C)nc2n1 + COc1cccc2cc(-c3nc([C@H]4CC[C@H](C(=O)O)CC4)n4ncnc(N)c34)[nH]c12 [OSI-027] (partner 0.5 µM)
relative viability (A-427; first compound 0.01 µM): 0.457 | relative viability (A-427; first compound 0.03162 µM): 0.435 | relative viability (A-427; first compound 0.1 µM): 0.427 | relative viability (A-427; first compound 0.3162 µM): 0.364 | relative viability (A-427; first compound 1 µM): 0.298 | relative viability (COR-L 105; first compound 0.01 µM): 0.704 | relative viability (COR-L 105; first compound 0.03162 µM): 0.591 | relative viability (COR-L 105; first compound 0.1 µM): 0.749 | relative viability (COR-L 105; first compound 0.3162 µM): 0.826 | relative viability (COR-L 105; first compound 1 µM): 0.417 | relative viability (ChaGo-K-1; first compound 0.01 µM): 0.618 | relative viability (ChaGo-K-1; first compound 0.03162 µM): 0.671 | relative viability (ChaGo-K-1; first compound 0.1 µM): 0.619 | relative viability (ChaGo-K-1; first compound 0.3162 µM): 0.559 | relative viability (ChaGo-K-1; first compound 1 µM): 0.513 | relative viability (EKVX; first compound 0.01 µM): 0.734 | relative viability (EKVX; first compound 0.03162 µM): 0.721 | relative viability (EKVX; first compound 0.1 µM): 0.711 | relative viability (EKVX; first compound 0.3162 µM): 0.765 | relative viability (EKVX; first compound 1 µM): 0.671 | relative viability (EMC-BAC-2; first compound 0.01 µM): 0.38 | relative viability (EMC-BAC-2; first compound 0.03162 µM): 0.399 | relative viability (EMC-BAC-2; first compound 0.1 µM): 0.398 | relative viability (EMC-BAC-2; first compound 0.3162 µM): 0.471 | relative viability (EMC-BAC-2; first compound 1 µM): 0.358 | relative viability (H3255; first compound 0.01 µM): 0.524 | relative viability (H3255; first compound 0.03162 µM): 0.547 | relative viability (H3255; first compound 0.1 µM): 0.698 | relative viability (H3255; first compound 0.3162 µM): 0.448 | relative viability (H3255; first compound 1 µM): 0.538 | relative viability (HCC-366; first compound 0.01 µM): 1.02 | relative viability (HCC-366; first compound 0.03162 µM): 1.01 | relative viability (HCC-366; first compound 0.1 µM): 1.2 | relative viability (HCC-366; first compound 0.3162 µM): 1.06 | relative viability (HCC-366; first compound 1 µM): 1.24 | relative viability (LK-2; first compound 0.01 µM): 0.193 | relative viability (LK-2; first compound 0.03162 µM): 0.192 | relative viability (LK-2; first compound 0.1 µM): 0.163 | relative viability (LK-2; first compound 0.3162 µM): 0.165 | relative viability (LK-2; first compound 1 µM): 0.196 | relative viability (LOU-NH91; first compound 0.01 µM): 0.672 | relative viability (LOU-NH91; first compound 0.03162 µM): 0.741 | relative viability (LOU-NH91; first compound 0.1 µM): 0.776 | relative viability (LOU-NH91; first compound 0.3162 µM): 0.776 | relative viability (LOU-NH91; first compound 1 µM): 0.696 | relative viability (NCI-H1563; first compound 0.01 µM): 0.766 | relative viability (NCI-H1563; first compound 0.03162 µM): 0.723 | relative viability (NCI-H1563; first compound 0.1 µM): 0.835 | relative viability (NCI-H1563; first compound 0.3162 µM): 0.768 | relative viability (NCI-H1563; first compound 1 µM): 0.584 | relative viability (NCI-H1666; first compound 0.01 µM): 0.896 | relative viability (NCI-H1666; first compound 0.03162 µM): 0.877 | relative viability (NCI-H1666; first compound 0.1 µM): 0.817 | relative viability (NCI-H1666; first compound 0.3162 µM): 1.08 | relative viability (NCI-H1666; first compound 1 µM): 0.851 | relative viability (NCI-H1734; first compound 0.01 µM): 0.647 | relative viability (NCI-H1734; first compound 0.03162 µM): 0.61 | relative viability (NCI-H1734; first compound 0.1 µM): 0.634 | relative viability (NCI-H1734; first compound 0.3162 µM): 0.666 | relative viability (NCI-H1734; first compound 1 µM): 0.526 | relative viability (NCI-H1755; first compound 0.01 µM): 0.625 | relative viability (NCI-H1755; first compound 0.03162 µM): 0.77 | relative viability (NCI-H1755; first compound 0.1 µM): 0.811 | relative viability (NCI-H1755; first compound 0.3162 µM): 0.799 | relative viability (NCI-H1755; first compound 1 µM): 0.707 | relative viability (NCI-H1975; first compound 0.01 µM): 0.86 | relative viability (NCI-H1975; first compound 0.03162 µM): 0.822 | relative viability (NCI-H1975; first compound 0.1 µM): 0.802 | relative viability (NCI-H1975; first compound 0.3162 µM): 0.949 | relative viability (NCI-H1975; first compound 1 µM): 0.559 | relative viability (NCI-H2170; first compound 0.01 µM): 0.768 | relative viability (NCI-H2170; first compound 0.03162 µM): 0.67 | relative viability (NCI-H2170; first compound 0.1 µM): 0.71 | relative viability (NCI-H2170; first compound 0.3162 µM): 0.79 | relative viability (NCI-H2170; first compound 1 µM): 0.75 | relative viability (NCI-H23; first compound 0.01 µM): 0.566 | relative viability (NCI-H23; first compound 0.03162 µM): 0.679 | relative viability (NCI-H23; first compound 0.1 µM): 0.738 | relative viability (NCI-H23; first compound 0.3162 µM): 0.731 | relative viability (NCI-H23; first compound 1 µM): 0.623 | relative viability (NCI-H441; first compound 0.01 µM): 0.56 | relative viability (NCI-H441; first compound 0.03162 µM): 0.669 | relative viability (NCI-H441; first compound 0.1 µM): 0.638 | relative viability (NCI-H441; first compound 0.3162 µM): 0.689 | relative viability (NCI-H441; first compound 1 µM): 0.623 | relative viability (NCI-H520; first compound 0.01 µM): 0.251 | relative viability (NCI-H520; first compound 0.03162 µM): 0.228 | relative viability (NCI-H520; first compound 0.1 µM): 0.259 | relative viability (NCI-H520; first compound 0.3162 µM): 0.192 | relative viability (NCI-H520; first compound 1 µM): 0.155 | relative viability (NCI-H596; first compound 0.01 µM): 0.63 | relative viability (NCI-H596; first compound 0.03162 µM): 0.74 | relative viability (NCI-H596; first compound 0.1 µM): 0.758 | relative viability (NCI-H596; first compound 0.3162 µM): 0.709 | relative viability (NCI-H596; first compound 1 µM): 0.528 | relative viability (PC-3 [JPC-3]; first compound 0.01 µM): 0.753 | relative viability (PC-3 [JPC-3]; first compound 0.03162 µM): 0.796 | relative viability (PC-3 [JPC-3]; first compound 0.1 µM): 0.782 | relative viability (PC-3 [JPC-3]; first compound 0.3162 µM): 1.02 | relative viability (PC-3 [JPC-3]; first compound 1 µM): 0.585 | relative viability (SK-MES-1; first compound 0.01 µM): 0.627 | relative viability (SK-MES-1; first compound 0.03162 µM): 0.654 | relative viability (SK-MES-1; first compound 0.1 µM): 0.58 | relative viability (SK-MES-1; first compound 0.3162 µM): 0.81 | relative viability (SK-MES-1; first compound 1 µM): 0.521 | relative viability (SW 900; first compound 0.01 µM): 0.657 | relative viability (SW 900; first compound 0.03162 µM): 0.592 | relative viability (SW 900; first compound 0.3162 µM): 0.634 | relative viability (SW 900; first compound 1 µM): 0.402
